Assay results taken from US6610694B1, “Condensed pyridazine compounds, their production and use” (Takeda Chemical Industries, Ltd., priority 1998, dated 2003).
Where a name gives a salt, the structure may show the parent alone.

Experiments:
[1] = tested on: histamine-induced skin reactions in guinea pigs; assay: Effect on histamine-induced skin reactions in guinea pigs (skin vascular permeability); format: in vivo, guinea pig; conditions: oral 3 mg/kg
Procedure: Effect on Histamine-induced Skin Reactions in Guinea Pigs
Male Hartley guinea pigs weighing about 500 g were used. After the dorsal hair was shaved under ether anesthesia, 1 ml of a 2.5% pontamine sky blue solution was injected intravenously administered, and then 0.1 ml of histamine at 3 μg/ml was injected intradermally into 2 sites (left and right) in the back. Thirty minutes after the injection of histamine, the animals were killed by bleeding and the skin was removed. Two perpendicular diameters (mm) of each blue spot on the inside of the skin were measured and multiplied; the mean for the two products was taken as the microvascular permeability index. Test compounds were suspended in a 5% gum arabic solution and orally administered in a volume of 0.2 ml/100 g body weight 1 hour before histamine administration. Animals in the control group received the same volume of a 5% gum arabic solution. The suppression rate of the sample for the title reaction was calculated using Equation 1, and the results are given in Table 1.
Inhibition (%) of histamine-induced skin reactions=100×(1−vascular permeability index in the presence of drug/vascular permeability index in control group) Equation 1
In the same manner as Experimental Example 1a, the effects of various example compounds on histamine-induced skin reactions in guinea pigs were examined.

[2] = tested on: guinea pig eosinophils; assay: Suppression of LTB4-induced chemotactic reaction in guinea pig eosinophils; format: cell-based
Procedure: 1) Preparation of Guinea Pig Eosinophils
To male Hartley guinea pigs, 2 ml of equine serum (Bio-Whittaker, Inc.) was intraperitoneally administered once weekly for 8 consecutive weeks. At 48 hours after final administration, 75 ml of physiological saline was intraperitoneally injected, after which the saline was recovered and centrifuged at 400×g for 5 minutes. The resulting sediment was suspended in 5 ml of Percoll solution (density (d)=1.07) and layered on top of the multiple layers of different densities of Percoll solution (density(d)=1.112, 5 ml; d=1.095, 10 ml; d=1.090, 10 ml; d=1.085, 5 ml), followed by centrifugation at 1,000×g for 25 minutes (20° C.). The cell layer formed at the interface between densities 1.112 and 1.095 was collected. Erythrocytes present in the collected cell sediment were removed by hypotonic treatment (suspended in water for […]).
The cell sediment was washed 3 times with Hanks' solution containing 10 mM Hepes (Dojin Kagaku) (Hanks-Hepes) and suspended in a Hanks-Hepes solution containing 2% human serum albumin (Wako Pure Chemical Industry or Sigma) (Hanks-Hepes-HSA) to a final concentration of 5.56×10^6 cells/ml. Eosinophil purity was 90%, viability being over 98%.
2) Determination of Chemotactic Reaction Suppression
To a 24-well petri dish, which serves as a lower chamber, 600 μl of Hanks-Hepes-HSA solution containing LTB4 (final concentration 10^−8 M, Cascade Biochemical Ltd.), was transferred, followed by incubation at 37° C. for 30 minutes in a carbon dioxide incubator. Separately, 200 μl of eosinophil suspension (5×10^6 cells/ml), previously incubated at 37 C for 15 minutes, was added to Chemotaxicell (polycarbonate membrane, pore size 3 μm, thickness 10 μm), which serves as an upper chamber, after the upper chamber was attached to the 24-well petri dish. After 2 hours of reaction in the CO2 incubator, the Chemotaxicell was removed; 60 μl of a 2% (w/v) solution of EDTA in physiological saline was added to the liquid in the lower chamber. After the mixture was on cooled ice, the cells migrating into the lower chamber were counted using a blood cell counter [Coulter Counter (trade name)]. The test drug, dissolved in N,N-dimethyl formamide (DMF), was added to both the upper and lower chambers to a final concentration of 10^-5 M.
Chemotactic reaction suppression rate=[1−(number of migrating cells in the presence of drug/number of migrating cells in the absence of drug).]×100 Equation 2
Suppression rates of LTB4-induced chemotactic reaction by test substances (1×10^−5 M) were calculated using the above equation.
In the same manner as Experimental Example 2a, the percent suppression of LTB4-induced chemotactic reactions by various example compounds was calculated.

[3] = same manner as Experimental Example 1a, Table 3
[4] = LTB4-induced chemotaxis, same manner as Experimental Example 2a (1×10^−5 M), Table 4

`CCOC(=O)Cn1nc2ccc(OCCCN3CCC(OC(c4ccccc4)c4ccccc4)CC3)nn2c1=O` [Example 5b, Ethyl 2-[6-[3-[4-(Diphenylmethoxy)piperidino]propoxy]-3-oxo[1,2,4]triazolo[4,3-b]pyridazin-2(3H)-yl]acetate] gave a melting point of 124 to 125 °C.

Work on `O=C(O)CNC(=O)c1nnc2ccc(NCCCN3CCC(OC(c4ccccc4)c4ccccc4)CC3)nn12` [Example 30a, N-[6-[3-[4-(Diphenylmethoxy)piperidino]propylamino][1,2,4]triazolo[4,3-b]pyridazine-3-carbonyl]glycine] yielded a melting point of 182 to 184 °C.

With `CC(C)(C)c1nnc2ccc(OCCCN3CCC(OC(c4ccccc4)c4ccccc4)CC3)nn12` [Example 13a, 3-tert-Butyl-6-[3-[4-(diphenylmethoxy)piperidino]propoxy][1,2,4]triazolo[4.3-b]pyridazine] the “Suppression (%) of histamine-induced skin vascular permeability elevation, oral administration at 3 mg/kg” value (“Suppression (%)” for short) ([1]; 1 hour before intradermal histamine, Table 1) was 79% and the “Suppression rate (%)” value ([2]; LTB4 10^−8 M-induced chemotaxis, test substance 1×10^−5 M, Table 2) was 41%.

Molecule `CC(C)(NC(=O)c1nnc2ccc(OCCCN3CCC(OC(c4ccccc4)c4ccccc4)CC3)nn12)C(=O)O` [Example 28a, N-[6-[3-[4-(Diphenylmethoxy)piperidino]propoxy][1,2,4]triazolo[4,3-b]pyridazine-3-carbonyl]-2,2-dimethylglycine] has a melting point of 163 to 165 °C.

For `CC(C)(C(N)=O)c1nnc2ccc(OCCCN3CCC(OC(c4ccccc4)c4ccccc4)CC3)nn12` [Example 23a, 2-[6-[3-[4-(Diphenylmethoxy)piperidino]propoxy][1,2,4]triazolo[4,3-b]pyridazin-3-yl]-2-methylpropionamide], the melting point was 133 to 136 °C.

With `CCOC(=O)C(C)(C)n1nc2ccc(OCCCN3CCC(OC(c4ccccc4)c4ccccc4)CC3)nn2c1=O.Cl` the melting point was 129 °C.

For `c1ccc(C(OC2CCN(CCOc3ccc4nncn4n3)CC2)c2ccccc2)cc1` [Example 6a, 6-(2-[4-(Diphenylmethoxy)piperidino]ethoxy][1,2,4]triazolo[4,3-b]pyridazine], the melting point was 149 to 150 °C.

In the case of `c1ccc(C(c2ccccc2)N2CCN(CCCOc3ccc4nncn4n3)CC2)cc1` [Example 1a, 6-[3-[4-(Diphenylmethyl)-1-piperazinyl]propoxy][1,2,4]triazolo[4,3-b]pyridazine], the melting point is reported as 132 to 134 °C.

`CC(C)(C(=O)O)c1nnc2ccc(NCCCN3CCC(OC(c4ccccc4)c4ccccc4)CC3)nn12` [Example 19a, 2-[6-[3-[4-(Diphenylmethoxy)piperidino]propylamino][1,2,4]triazolo[4,3-b]pyridazin-3-yl]-2-methylpropionic Acid] gave a melting point of 155 to 157 °C.

Molecule `c1ccc(C(OC2CCN(CCCCCCOc3ccc4nncn4n3)CC2)c2ccccc2)cc1` (as salt: fumarate) [Example 7a, 6-[6-[4-(Diphenylmethoxy)piperidino]hexyloxy][1,2,4]triazolo[4,3-b]pyridazine Fumarate] has a melting point of 144 to 146 °C.

For `O=c1[nH]nc2ccc(NCCCN3CCC(OC(c4ccccc4)c4ccccc4)CC3)nn12` [Example 3b, 6-[3-[4-(Diphenylmethoxy)piperidino]propylamino][1,2,4]triazolo[4,3-b]pyridazin-3(2H)-one], the “Suppression (%)” value [1, 3] was 94% and the melting point was 156 to 170 °C.

`CCOC(=O)c1nnc2ccc(NCCCN3CCC(OC(c4ccccc4)c4ccccc4)CC3)nn12` [Example 21a, Ethyl 6-[3-[4-(Diphenylmethoxy)piperidino]propylamino][1,2,4]triazolo[4,3-b]pyridazine-3-carboxylate] showed a melting point of 129 to 133 °C.

With `CC(C)(C)C(=O)OCOC(=O)C(C)(C)n1nc2ccc(NCCCN3CCC(OC(c4ccccc4)c4ccccc4)CC3)nn2c1=O` [Example 11b, pivaloyloxymethyl 2-[6-[3-[4-(Diphenylmethoxy)piperidino]propylamino]-3-oxo[1,2,4]triazolo[4,3-b]pyridazin-2(3H)-yl]-2-methylpropionate] the “Suppression rate (%)” value [2, 4] was 100% and the melting point was 162 °C.

For `O=c1[nH]nc2ccc(OCCCN3CCC(OC(c4ccccc4)c4ccccc4)CC3)nn12` [Example 4b, 6-[3-[4-(Diphenylmethoxy)piperidino]propoxy][1,2,4]triazolo[4,3-b]pyridazin-3(2H)-one], the “Suppression (%)” value [1, 3] was 92% and the melting point was 209 to 211 °C.

Work on `CC(C)(NC(=O)c1nnc2ccc(NCCCN3CCC(OC(c4ccccc4)c4ccccc4)CC3)nn12)C(=O)O` [Example 26a, N-[6-[3-[4-(Diphenylmethoxy)piperidino]propylamino][1,2,4]triazolo[4,3-b]pyridazine-3-carbonyl]-2,2-dimethylglycine] yielded a melting point of 191 to 193 °C.

For `CC(C)(C)C(=O)OCn1nc2ccc(NCCCN3CCC(OC(c4ccccc4)c4ccccc4)CC3)nn2c1=O` [Example 10b, 6-[3-[4-(Diphenylmethoxy)piperidino]propylamino]-2-(pivaloyloxymethyl)[1,2,4]triazolo[4,3-b]pyridazin-3(2H)-one], the “Suppression rate (%)” value [2, 4] was 55% and the melting point was 168 to 171 °C.

In the case of `CCOC(=O)CNC(=O)c1nnc2ccc(NCCCN3CCC(OC(c4ccccc4)c4ccccc4)CC3)nn12` [Example 29a, N-[6-[3-[4-(Diphenylmethoxy)piperidino]propylamino][1,2,4]triazolo[4,3-b]pyridazine-3-carbonyl]glycine ethyl ester], the melting point is reported as 152 to 155 °C.

`c1ccc(C(c2ccccc2)N2CCN(CCCCCCNc3ccc4nncn4n3)CC2)cc1` [Example 11a, 6-[6-[4-(Diphenylmethyl)-1-piperazinyl]hexylamino][1,2,4]triazolo[4,3-b]pyridazine] showed a melting point of 133 to 139 °C.

For `CCOC(=O)C(C)(C)NC(=O)c1nnc2ccc(NCCCN3CCC(OC(c4ccccc4)c4ccccc4)CC3)nn12` [Example 25a, N-[6-[3-[4-(Diphenylmethoxy)piperidino]propylamino][1,2,4]triazolo[4,3-b]pyridazine-3-carbonyl]-2,2-dimethylglycine Ethyl Ester], the melting point was 165 to 167 °C.

Work on `CC(C)(C(=O)O)n1nc2ccc(NCCCN3CCC(OC(c4ccccc4)c4ccccc4)CC3)nn2c1=O` [Example 9b, 2-[6-[3-[4-(Diphenylmethoxy)piperidino]propylamino]-3-oxo[1,2,4]triazolo[4,3-b]pyridazin-2(3H)-yl]-2-methylpropionic Acid] yielded a melting point of 181 to 185 °C.

`c1ccc(C(c2ccccc2)N2CCN(CCCSc3ccc4nncn4n3)CC2)cc1` [Example 2a, 6-[3-[4-(Diphenylmethyl)-1-piperazinyl]propylthio][1,2,4]triazolo[4,3-b]pyridazine] gave a melting point of 143 to 144 °C.

For `Cn1nc2ccc(OCCCN3CCC(OC(c4ccccc4)c4ccccc4)CC3)nn2c1=O` [Example 2b, 6-[3-[4-(Diphenylmethoxy)piperidino]propoxy]-2-methyl[1,2,4]triazolo[4,3-b]pyridazin-3(2H)-one], the melting point was 139 to 140 °C.

Work on `OC(COc1ccc2nncn2n1)CN1CCN(C(c2ccccc2)c2ccccc2)CC1` (centres unmarked) [Example 15a, 6-[3-[4-(Diphenylmethyl)-1-piperazinyl]-2-hydroxypropoxy][1,2,4]triazolo[4,3-b]pyridazine] yielded a melting point of 95 to 97 °C.

`c1ccc(C(OC2CCN(CCCNc3ccc4nncn4n3)CC2)c2ccccc2)cc1` [Example 4a, 6-[3-(4-(Diphenylmethoxy)piperidino]propylamino][1,2,4]triazolo[4,3-b]pyridazine] showed a melting point of 167 to 168 °C.
